Source: PMC12669672, “Structural insights into selective and dual antagonism of EP2 and EP4 prostaglandin receptors” (The EMBO Journal, 2025)
Several values for one entry are separate records, joined by “and”; a condition that tells them apart may be missing. Identical values can stand only once. Entries after “also recorded” stand apart in the source; their conditions may differ. Like-named read-outs stand apart in the source and are kept apart here.

Legend:
Assay in all cases: GloSensor cAMP assay, antagonism of PGE2-induced cAMP
Format in all cases: cell-based
EP2 WT = EP2 WT (Homo sapiens, UniProt P43116); set-up: The full-length EP2 or EP4 was cloned into the pcDNA3.1 vector; FLAG (N); expressed in transfected cells; host or cells: AD293 cells; details: for remaining activity at 0.1 µM / remaining activity at 0.01 µM / remaining activity at 0.001 µM / remaining activity at 0.0001 µM / remaining activity at 10 pM / remaining activity at 1 pM / remaining activity at 10 µM / remaining activity at 1 µM: 1 h; for remaining activity at 0.1 µM / remaining activity at 0.01 µM / remaining activity at 0.001 µM / remaining activity at 0.0001 µM / remaining activity at 10 pM / remaining activity at 1 pM / remaining activity at 10 µM / remaining activity at 1 µM / cAMP activity (∆pIC50 from EP2 WT): single experiments 1st-3rd
Sequence of EP2 WT (P43116 whole entry): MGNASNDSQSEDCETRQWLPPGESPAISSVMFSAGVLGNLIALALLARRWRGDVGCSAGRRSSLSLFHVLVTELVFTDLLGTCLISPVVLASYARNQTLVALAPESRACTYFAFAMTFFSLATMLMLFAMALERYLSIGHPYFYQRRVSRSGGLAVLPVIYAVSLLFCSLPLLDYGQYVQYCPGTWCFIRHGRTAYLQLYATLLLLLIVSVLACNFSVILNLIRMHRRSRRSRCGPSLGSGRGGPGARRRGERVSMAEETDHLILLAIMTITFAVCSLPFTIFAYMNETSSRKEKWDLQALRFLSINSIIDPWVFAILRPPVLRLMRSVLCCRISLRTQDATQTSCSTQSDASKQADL
Experimental: (§1) The full-length EP2 or EP4 was cloned into the pcDNA3.1 vector (Invitrogen), incorporating an N-terminal FLAG tag. AD293 cells were seeded in six-well plates containing DMEM supplemented with 10% dialyzed FBS 1 day prior to transfection. Following overnight growth, cells were transfected with a 1:1 ratio of receptor construct and GloSensor22F cAMP biosensor (Promega) plasmids.
(§2) Twenty-four hours post-transfection, the cells were transferred to CO2-independent media containing 2% GloSensor cAMP Reagent (Promega) and distributed into 384-well assay plates at a density of 4000 cells per well in 10 μL. […] The plates were then incubated at 37 °C for an additional hour before luminescence measurements were taken using an EnVision plate reader.
(§3) Data analysis was performed using GraphPad Prism software v8.0.1. A nonlinear regression analysis, employing a sigmoidal dose–response model, was conducted to determine the Emax values and half-maximum inhibitory concentrations (IC50) for each compound tested.

EP2 S305A = target: T1, EP2 S305A (Homo sapiens, UniProt P43116, S305A); details: single experiments 1st-3rd
T1 construct: The full-length EP2 or EP4 was cloned into the pcDNA3.1 vector; FLAG (N); expressed in transfected cells; host or cells: AD293 cells
T1 sequence (P43116 whole entry S305A): as the sequence (P43116 whole entry) above, with S305A counted along it
Experimental: as §1, §2, §3

EP2 M116A = target: T2, EP2 M116A (Homo sapiens, UniProt P43116, M116A); details: 1 h, single experiments 1st-3rd, Fig. 3D, read-out: % cAMP activity (normalized to WT)
T2 construct: The full-length EP2 or EP4 was cloned into the pcDNA3.1 vector; FLAG (N); expressed in transfected cells; host or cells: AD293 cells
T2 sequence (P43116 whole entry M116A): as the sequence (P43116 whole entry) above, with M116A counted along it
Experimental: as §1, §2, §3

EP2 S86A = target: T3, EP2 S86A (Homo sapiens, UniProt P43116, S86A); details: single experiments 1st-3rd
T3 construct: The full-length EP2 or EP4 was cloned into the pcDNA3.1 vector; FLAG (N); expressed in transfected cells; host or cells: AD293 cells
T3 sequence (P43116 whole entry S86A): as the sequence (P43116 whole entry) above, with S86A counted along it
Experimental: as §1, §2, §3

EP2 T82A = target: T4, EP2 T82A (Homo sapiens, UniProt P43116, T82A); details: 1 h, single experiments 1st-3rd, Fig. 3D, read-out: % cAMP activity (normalized to WT)
T4 construct: The full-length EP2 or EP4 was cloned into the pcDNA3.1 vector; FLAG (N); expressed in transfected cells; host or cells: AD293 cells
T4 sequence (P43116 whole entry T82A): as the sequence (P43116 whole entry) above, with T82A counted along it
Experimental: as §1, §2, §3

EP2 W186A = target: T5, EP2 W186A (Homo sapiens, UniProt P43116, W186A); details: 1 h, single experiments 1st-3rd, Fig. 3D, read-out: % cAMP activity (normalized to WT)
T5 construct: The full-length EP2 or EP4 was cloned into the pcDNA3.1 vector; FLAG (N); expressed in transfected cells; host or cells: AD293 cells
T5 sequence (P43116 whole entry W186A): as the sequence (P43116 whole entry) above, with W186A counted along it
Experimental: as §1, §2, §3

EP2 S308A = target: T6, EP2 S308A (Homo sapiens, UniProt P43116, S308A); details: single experiments 1st-3rd
T6 construct: The full-length EP2 or EP4 was cloned into the pcDNA3.1 vector; FLAG (N); expressed in transfected cells; host or cells: AD293 cells
T6 sequence (P43116 whole entry S308A): as the sequence (P43116 whole entry) above, with S308A counted along it
Experimental: as §1, §2, §3

EP4 WT = target: T7, EP4 WT (Homo sapiens, UniProt P35408); details: 1 h, single experiments 1st-3rd, Fig. S1A
T7 construct: The full-length EP2 or EP4 was cloned into the pcDNA3.1 vector; FLAG (N); expressed in transfected cells; host or cells: AD293 cells
T7 sequence (P35408 whole entry): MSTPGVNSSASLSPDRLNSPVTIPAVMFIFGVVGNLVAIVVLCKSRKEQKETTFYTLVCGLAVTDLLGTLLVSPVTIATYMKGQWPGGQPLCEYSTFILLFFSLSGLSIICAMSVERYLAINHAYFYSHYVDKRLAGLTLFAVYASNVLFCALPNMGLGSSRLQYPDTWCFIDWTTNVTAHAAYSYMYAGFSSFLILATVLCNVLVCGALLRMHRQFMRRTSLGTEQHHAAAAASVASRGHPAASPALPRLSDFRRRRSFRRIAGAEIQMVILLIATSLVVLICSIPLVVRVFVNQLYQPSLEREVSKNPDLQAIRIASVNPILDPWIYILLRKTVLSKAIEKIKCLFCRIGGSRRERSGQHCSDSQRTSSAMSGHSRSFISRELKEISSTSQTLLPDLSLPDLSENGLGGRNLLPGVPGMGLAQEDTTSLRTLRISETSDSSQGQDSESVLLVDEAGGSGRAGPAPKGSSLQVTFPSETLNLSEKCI
Experimental: as §1, §2, §3

[1] = 1 h, PF-04418948 log([M]) -7, Fig. 3D, read-out: % cAMP activity (normalized to WT)
[2] = 1 h, PF-04418948 log([M]) -8, Fig. 3D, read-out: % cAMP activity (normalized to WT)
[3] = 1 h, PF-04418948 log([M]) -10, Fig. 3D, read-out: % cAMP activity (normalized to WT)
[4] = 1 h, PF-04418948 log([M]) -11, Fig. 3D, read-out: % cAMP activity (normalized to WT)
[5] = 1 h, PF-04418948 log([M]) -9, Fig. 3D, read-out: % cAMP activity (normalized to WT)
[6] = 1 h, PF-04418948 log([M]) -12, Fig. 3D, read-out: % cAMP activity (normalized to WT)

- remaining activity at 0.1 µM (EP2 WT; PF-04418948 log([M]) -7, Fig. 3D, read-out: % cAMP activity (normalized to WT)): 5.55%
- remaining activity at 0.01 µM (EP2 WT; PF-04418948 log([M]) -8, Fig. 3D, read-out: % cAMP activity (normalized to WT)): 44.3%
- remaining activity at 0.001 µM (EP2 WT; PF-04418948 log([M]) -9, Fig. 3D, read-out: % cAMP activity (normalized to WT)): 82.7%
- remaining activity at 0.0001 µM (EP2 WT; PF-04418948 log([M]) -10, Fig. 3D, read-out: % cAMP activity (normalized to WT)): 105%
- remaining activity at 10 pM (EP2 WT; PF-04418948 log([M]) -11, Fig. 3D, read-out: % cAMP activity (normalized to WT)): 101%
- remaining activity at 1 pM (EP2 WT; PF-04418948 log([M]) -12, Fig. 3D, read-out: % cAMP activity (normalized to WT)): 104%
- remaining activity at 10 µM (EP2 WT; ligand log([M]) -5, Fig. S7B, read-out: % cAMP activity (normalized to WT)): 2.66%
- remaining activity at 1 µM (EP2 WT; ligand log([M]) -6, Fig. S7B, read-out: % cAMP activity (normalized to WT)): 2.72%
- remaining activity at 0.1 µM (EP2 WT; ligand log([M]) -7, Fig. S7B, read-out: % cAMP activity (normalized to WT)): 8.2%
- remaining activity at 0.01 µM (EP2 WT; ligand log([M]) -8, Fig. S7B, read-out: % cAMP activity (normalized to WT)): 63.2%
- remaining activity at 0.001 µM (EP2 WT; ligand log([M]) -9, Fig. S7B, read-out: % cAMP activity (normalized to WT)): 96.2%
- remaining activity at 0.0001 µM (EP2 WT; ligand log([M]) -10, Fig. S7B, read-out: % cAMP activity (normalized to WT)): 92.4%
- remaining activity at 10 pM (EP2 WT; ligand log([M]) -11, Fig. S7B, read-out: % cAMP activity (normalized to WT)): 103%
- remaining activity at 1 pM (EP2 WT; ligand log([M]) -12, Fig. S7B, read-out: % cAMP activity (normalized to WT)): 101%
- remaining activity at 10 µM (EP2 WT; read-out: % cAMP activity on EP2 (normalized to PF-04418948), ligand log([M]) -5, Fig. S1A): 2.66%
- remaining activity at 1 µM (EP2 WT; read-out: % cAMP activity on EP2 (normalized to PF-04418948), ligand log([M]) -6, Fig. S1A): 2.72%
- remaining activity at 0.1 µM (EP2 WT; read-out: % cAMP activity on EP2 (normalized to PF-04418948), ligand log([M]) -7, Fig. S1A): 8.2%
- remaining activity at 0.01 µM (EP2 WT; read-out: % cAMP activity on EP2 (normalized to PF-04418948), ligand log([M]) -8, Fig. S1A): 63.2%
- remaining activity at 0.001 µM (EP2 WT; read-out: % cAMP activity on EP2 (normalized to PF-04418948), ligand log([M]) -9, Fig. S1A): 96.2%
- remaining activity at 0.0001 µM (EP2 WT; read-out: % cAMP activity on EP2 (normalized to PF-04418948), ligand log([M]) -10, Fig. S1A): 92.4%
- remaining activity at 10 pM (EP2 WT; read-out: % cAMP activity on EP2 (normalized to PF-04418948), ligand log([M]) -11, Fig. S1A): 103%
- remaining activity at 1 pM (EP2 WT; read-out: % cAMP activity on EP2 (normalized to PF-04418948), ligand log([M]) -12, Fig. S1A): 101%
- cAMP activity (∆pIC50 from EP2 WT) (EP2 WT; Appendix Fig. S7A): 0.0005 and 0.053 and -0.059
- cAMP activity (∆pIC50 from EP2 WT) (EP2 WT; Fig. 3E): 0.043 and 0.00333 and -0.047
- remaining activity at 0.1 µM (EP2 S305A; [1]): 22.4%
- remaining activity at 0.01 µM (EP2 S305A; [2]): 45.9%
- remaining activity at 0.0001 µM (EP2 S305A; [3]): 47.9%
- remaining activity at 10 pM (EP2 S305A; [4]): 41.3%
- cAMP activity (∆pIC50 from EP2 WT) (EP2 S305A; Fig. 3E): -1.170 and -1.396 and -1.144
- remaining activity at 1 µM (EP2 M116A; PF-04418948 log([M]) -6): 5.4%
- remaining activity at 0.1 µM (EP2 M116A; PF-04418948 log([M]) -7): 26.1%
- remaining activity at 0.01 µM (EP2 M116A; PF-04418948 log([M]) -8): 58.4%
- remaining activity at 0.001 µM (EP2 M116A; PF-04418948 log([M]) -9): 56.2%
- remaining activity at 0.0001 µM (EP2 M116A; PF-04418948 log([M]) -10): 64.8%
- remaining activity at 10 pM (EP2 M116A; PF-04418948 log([M]) -11): 75.1%
- remaining activity at 1 pM (EP2 M116A; PF-04418948 log([M]) -12): 77.8%
- remaining activity at 0.01 µM (EP2 S86A; [2]): 35%
- remaining activity at 0.001 µM (EP2 S86A; [5]): 61.5%
- remaining activity at 0.0001 µM (EP2 S86A; [3]): 63.4%
- remaining activity at 10 pM (EP2 S86A; [4]): 75.5%
- remaining activity at 1 pM (EP2 S86A; [6]): 72.4%
- cAMP activity (∆pIC50 from EP2 WT) (EP2 S86A; Fig. 3E): 0.200 and 0.410 and 0.340
- remaining activity at 1 µM (EP2 T82A; PF-04418948 log([M]) -6): 9.17%
- remaining activity at 0.1 µM (EP2 T82A; PF-04418948 log([M]) -7): 19.3%
- remaining activity at 0.01 µM (EP2 T82A; PF-04418948 log([M]) -8): 47.4%
- remaining activity at 0.001 µM (EP2 T82A; PF-04418948 log([M]) -9): 55.3%
- remaining activity at 1 µM (EP2 W186A; PF-04418948 log([M]) -6): 7.94%
- remaining activity at 0.1 µM (EP2 W186A; PF-04418948 log([M]) -7): 18%
- remaining activity at 0.01 µM (EP2 W186A; PF-04418948 log([M]) -8): 24.6%
- remaining activity at 0.001 µM (EP2 W186A; PF-04418948 log([M]) -9): 23.9%
- remaining activity at 0.0001 µM (EP2 W186A; PF-04418948 log([M]) -10): 24.4%
- remaining activity at 10 pM (EP2 W186A; PF-04418948 log([M]) -11): 29.3%
- remaining activity at 1 pM (EP2 W186A; PF-04418948 log([M]) -12): 27.9%
- remaining activity at 0.1 µM (EP2 S308A; [1]): 27.6%
- remaining activity at 0.01 µM (EP2 S308A; [2]): 78.6%
- remaining activity at 0.001 µM (EP2 S308A; [5]): 89.1%
- remaining activity at 0.0001 µM (EP2 S308A; [3]): 86.2%
- remaining activity at 10 pM (EP2 S308A; [4]): 84.2%
- remaining activity at 1 pM (EP2 S308A; [6]): 83.9%
- cAMP activity (∆pIC50 from EP2 WT) (EP2 S308A; Fig. 3E): -0.810 and -0.830 and -1.090
- remaining activity at 100 µM (EP4 WT; read-out: % cAMP activity EP4 (normalized to Grapiprant), ligand log([M]) -4.00): 99.1%
- remaining activity at […] (EP4 WT; read-out: % cAMP activity EP4 (normalized to Grapiprant), ligand log([M]) -4.70): 107%
- remaining activity at […] (EP4 WT; read-out: % cAMP activity EP4 (normalized to Grapiprant), ligand log([M]) -5.40): 103%
- remaining activity at […] (EP4 WT; read-out: % cAMP activity EP4 (normalized to Grapiprant), ligand log([M]) -6.10): 106%
- remaining activity at 0.03236 µM (EP4 WT; read-out: % cAMP activity EP4 (normalized to Grapiprant), ligand log([M]) -7.49): 93.7%
- remaining activity at 0.001288 µM (EP4 WT; read-out: % cAMP activity EP4 (normalized to Grapiprant), ligand log([M]) -8.89): 94%
Compound: COc1ccc2cc(OCC3(C(=O)O)CN(C(=O)c4ccc(F)cc4)C3)ccc2c1 [PF-04418948]
- antagonism profile EP2 versus EP4 (in words) (EP2 WT; cAMP accumulation assay upon PGE2 stimulation, Appendix Fig. S1A): selective antagonists of EP2; also recorded: highly selective for EP2 over EP4
